Source: US5942535A, “[a]-Annelated pyrrole derivatives and pharmaceutical use thereof” (Merckle GmbH, priority 1994, dated 1999)

How the values were obtained:
5-lipoxygenase (LO) = molecular target: T1, 5-lipoxygenase (LO) (Bos taurus, UniProt F1MQ78); experiment: Inhibition of the enzyme 5-lipoxygenase (LO); format: biochemical; conditions: first figure of cell 'LO/CO'; decimal comma; concentration unit inferred; read-out: 7) IC50 LO
T1 construct: endogenous in cells
T1 sequence (F1MQ78 1-674): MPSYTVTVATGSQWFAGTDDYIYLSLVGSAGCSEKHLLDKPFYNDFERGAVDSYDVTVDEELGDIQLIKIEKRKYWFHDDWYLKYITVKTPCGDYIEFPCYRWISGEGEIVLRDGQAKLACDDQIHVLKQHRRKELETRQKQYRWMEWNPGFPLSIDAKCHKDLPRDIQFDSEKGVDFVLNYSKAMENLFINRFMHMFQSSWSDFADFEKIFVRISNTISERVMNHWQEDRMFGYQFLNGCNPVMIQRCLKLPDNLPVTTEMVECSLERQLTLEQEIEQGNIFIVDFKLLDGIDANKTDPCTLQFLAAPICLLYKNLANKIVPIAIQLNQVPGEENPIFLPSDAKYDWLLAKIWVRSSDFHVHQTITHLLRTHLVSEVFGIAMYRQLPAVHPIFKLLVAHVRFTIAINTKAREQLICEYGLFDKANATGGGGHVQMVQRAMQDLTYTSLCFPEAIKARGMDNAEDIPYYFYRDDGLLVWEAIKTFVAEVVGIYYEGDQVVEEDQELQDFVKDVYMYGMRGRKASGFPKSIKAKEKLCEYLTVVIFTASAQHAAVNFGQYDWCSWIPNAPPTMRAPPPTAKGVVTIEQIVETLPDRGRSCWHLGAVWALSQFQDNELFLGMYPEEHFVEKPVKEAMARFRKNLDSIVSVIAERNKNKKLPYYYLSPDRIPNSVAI
Excerpt: (§1) 7) IC50 /LO/CO: Inhibition of the enzyme cyclooxygenase (CO) and 5-lipoxygenase (LO), Dannhardt et al., J. Pharm. Pharmacol. 1992, 44:419-424.

cyclooxygenase (CO) = molecular target: T2, cyclooxygenase (CO) (Bos taurus, UniProt O62664); experiment: Inhibition of the enzyme cyclooxygenase (CO); format: biochemical; conditions: second figure of cell 'LO/CO'; decimal comma; concentration unit inferred; read-out: 7) IC50 CO
T2 construct: endogenous in cells
T2 sequence (O62664 25-600): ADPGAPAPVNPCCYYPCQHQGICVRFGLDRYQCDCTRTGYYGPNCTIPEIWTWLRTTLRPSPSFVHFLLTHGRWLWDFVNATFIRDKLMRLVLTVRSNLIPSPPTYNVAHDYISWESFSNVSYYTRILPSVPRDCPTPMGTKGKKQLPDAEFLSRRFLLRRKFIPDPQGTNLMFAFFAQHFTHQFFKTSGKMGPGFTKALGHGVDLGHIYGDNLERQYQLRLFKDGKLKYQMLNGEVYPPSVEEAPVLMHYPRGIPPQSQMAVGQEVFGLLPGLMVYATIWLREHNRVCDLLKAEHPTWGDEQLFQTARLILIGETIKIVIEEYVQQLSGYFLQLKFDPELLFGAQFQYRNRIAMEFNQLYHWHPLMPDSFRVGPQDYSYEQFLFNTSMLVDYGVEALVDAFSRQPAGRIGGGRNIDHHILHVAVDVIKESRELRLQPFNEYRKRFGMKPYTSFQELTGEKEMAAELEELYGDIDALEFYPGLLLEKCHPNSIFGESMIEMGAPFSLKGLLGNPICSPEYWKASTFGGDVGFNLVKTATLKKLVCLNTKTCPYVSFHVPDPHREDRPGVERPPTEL
Excerpt: as §1

Row | SMILES | degraded at 24 h (physchem; aqueous solution) [%] | half-life (physchem; chloroform) [h] | IC50 (5-lipoxygenase (LO)) [nM] | IC50 (cyclooxygenase (CO)) [nM]
1 | CC1(C)Cc2c(-c3ccccc3)c(-c3ccc(Cl)cc3)c(CC(=O)O)n2C1 [6-(4-chlorophenyl)-2,2-dimethyl-7-phenyl-2,3-dihydro-1H-pyrrolizin-5-yl acetic acid] | ~2 | ~1 | – | –
2 | CC1(C)Cc2c(-c3ccccc3)c(-c3ccc(Cl)cc3)c(CC(=O)NS(C)(=O)=O)n2C1 [Example 4] | – | – | 230 | 150
